In patent US9783536B2, “Nitrogen-containing heterocyclic compound or salt thereof” (FUJIFILM Corporation, priority 2013, dated 2017):
pIC50: −log10 of the molar value.

Key:
[1] = target: T1, GST fusion human ERK2 protein (Homo sapiens, UniProt P28482); assay: ERK2 enzyme assay (1); type: biochemical; conditions: ERK2 enzyme assay (1); read-out: ERK2 enzyme inhibitory activity (1)
T1 construct: purchased Carna Biosciences, Inc; host or cells: E. coli expression system
Procedure, shortened: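 Enzyme (2.5 nmol/L, E. coli-expressed) preincubated with compound 15 min at room temperature in HEPES/MgCl2/DTT/Brij35 buffer, pH 7.5; reaction with 4.25 μmol/L FL-Peptide 8 and 43.1 μmol/L ATP for 120 min at 25 °C. Phosphorylated peptide fraction quantified by mobility-shift separation after EDTA stop; IC50 calculated.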

[2] = target: T1, GST fusion human ERK2 protein; assay: ERK2 enzyme assay (2); type: biochemical; conditions: ERK2 enzyme assay (2); read-out: ERK2 enzyme inhibitory activity (2)
Procedure, shortened: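 GST-tagged human ERK2 expressed in E. coli (1.25 nmol/L) was preincubated with compound for 15 min at room temperature in pH 7.5 Hepes buffer with MgCl2, DTT and Brij35. Reaction with FL-Peptide 8 (final 4.25 μmol/L) and ATP (final 1 mmol/L) ran 120 min at 25 °C; EDTA stopped it, and phosphorylated peptide was quantified by mobility-shift separation to derive IC50.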

human PI3Kα protein = target: T2, human PI3Kα protein (Homo sapiens, UniProt P42336); assay: PI3Kα enzyme assay (ADP-Glo); type: biochemical; conditions: read-out: PI3Kα enzyme inhibitory activity
T2 construct: purchased Carna Biosciences, Inc; host or cells: baculovirus expression system
Procedure, shortened: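 Biotinylated human PI3Kα (baculovirus-expressed, 4.5 nmol/L) pre-incubated 15 min with compound in Tris-HCl pH 7.5, MgCl2, BSA; reaction 60 min at 25° C with 50 μmol/L PIP2 and 100 μmol/L ATP final. ADP quantified by ADP-Glo luminescence; IC50 calculated.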

CHO-K1 cells = assay: CHO cell toxicity test; type: cell-based, Chinese hamster; conditions: Cricetulus griseus; CHO-K1 cells, 24 hours culture with compound, CellTiter-Glo; read-out: IC50 value (concentration at which the number of viable cells was suppressed to 50% or less)
Procedure, shortened: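 CHO-K1 cells were cultured 24 h, then exposed 24 h to compound at final 25.00 to 0.20 μmol/L in F-12 with 2% FCS. Viability read by CellTiter-Glo luminescence; inhibition % = 100 − (treated/untreated signal)×100.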

T2 sequence (P42336 whole entry): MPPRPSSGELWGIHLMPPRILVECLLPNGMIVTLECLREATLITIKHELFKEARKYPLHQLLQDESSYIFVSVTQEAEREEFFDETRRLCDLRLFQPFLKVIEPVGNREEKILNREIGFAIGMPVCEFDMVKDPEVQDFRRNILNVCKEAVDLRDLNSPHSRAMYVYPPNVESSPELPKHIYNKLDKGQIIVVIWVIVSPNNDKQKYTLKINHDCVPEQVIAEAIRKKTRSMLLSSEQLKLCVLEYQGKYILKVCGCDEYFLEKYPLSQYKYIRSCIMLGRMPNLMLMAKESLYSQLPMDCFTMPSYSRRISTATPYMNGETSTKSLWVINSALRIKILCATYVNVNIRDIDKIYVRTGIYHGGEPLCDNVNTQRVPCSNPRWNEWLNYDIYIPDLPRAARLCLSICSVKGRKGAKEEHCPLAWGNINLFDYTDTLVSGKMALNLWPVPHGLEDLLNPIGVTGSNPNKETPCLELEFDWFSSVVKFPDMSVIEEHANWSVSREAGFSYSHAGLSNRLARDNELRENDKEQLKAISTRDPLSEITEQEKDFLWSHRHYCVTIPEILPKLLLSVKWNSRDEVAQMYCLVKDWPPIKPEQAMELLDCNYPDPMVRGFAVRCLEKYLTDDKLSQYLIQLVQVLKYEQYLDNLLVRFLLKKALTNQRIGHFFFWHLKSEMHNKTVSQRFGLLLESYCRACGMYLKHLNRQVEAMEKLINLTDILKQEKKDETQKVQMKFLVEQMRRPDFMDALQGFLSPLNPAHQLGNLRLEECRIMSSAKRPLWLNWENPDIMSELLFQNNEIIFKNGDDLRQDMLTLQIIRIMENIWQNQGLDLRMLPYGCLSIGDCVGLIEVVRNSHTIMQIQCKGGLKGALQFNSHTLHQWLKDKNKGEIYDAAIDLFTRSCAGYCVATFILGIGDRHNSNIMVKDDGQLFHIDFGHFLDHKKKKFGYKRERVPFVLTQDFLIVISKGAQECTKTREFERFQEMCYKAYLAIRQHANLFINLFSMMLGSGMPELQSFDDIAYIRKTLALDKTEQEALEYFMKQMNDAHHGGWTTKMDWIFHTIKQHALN
T2 sequence (P27986 whole entry partner): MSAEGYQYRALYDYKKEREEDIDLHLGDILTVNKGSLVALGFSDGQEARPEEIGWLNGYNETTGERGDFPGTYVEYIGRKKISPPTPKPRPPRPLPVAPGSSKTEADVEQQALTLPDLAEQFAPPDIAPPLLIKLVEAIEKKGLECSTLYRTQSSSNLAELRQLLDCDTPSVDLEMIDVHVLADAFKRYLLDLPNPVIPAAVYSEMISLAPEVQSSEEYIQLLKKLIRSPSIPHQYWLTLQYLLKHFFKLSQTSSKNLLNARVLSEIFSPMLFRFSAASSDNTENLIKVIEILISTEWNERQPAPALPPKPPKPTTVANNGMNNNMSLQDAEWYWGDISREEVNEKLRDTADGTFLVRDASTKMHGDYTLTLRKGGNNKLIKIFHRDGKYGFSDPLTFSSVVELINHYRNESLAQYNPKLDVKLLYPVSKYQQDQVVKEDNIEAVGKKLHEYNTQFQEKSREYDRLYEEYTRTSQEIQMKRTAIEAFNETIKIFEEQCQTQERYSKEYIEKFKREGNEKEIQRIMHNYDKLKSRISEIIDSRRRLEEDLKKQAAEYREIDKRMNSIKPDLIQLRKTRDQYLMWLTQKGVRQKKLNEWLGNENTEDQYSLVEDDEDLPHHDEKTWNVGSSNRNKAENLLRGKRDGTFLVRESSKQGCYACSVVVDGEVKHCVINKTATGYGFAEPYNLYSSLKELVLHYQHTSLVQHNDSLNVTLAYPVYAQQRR
T1 sequence (P28482 whole entry, the tested form may be a part): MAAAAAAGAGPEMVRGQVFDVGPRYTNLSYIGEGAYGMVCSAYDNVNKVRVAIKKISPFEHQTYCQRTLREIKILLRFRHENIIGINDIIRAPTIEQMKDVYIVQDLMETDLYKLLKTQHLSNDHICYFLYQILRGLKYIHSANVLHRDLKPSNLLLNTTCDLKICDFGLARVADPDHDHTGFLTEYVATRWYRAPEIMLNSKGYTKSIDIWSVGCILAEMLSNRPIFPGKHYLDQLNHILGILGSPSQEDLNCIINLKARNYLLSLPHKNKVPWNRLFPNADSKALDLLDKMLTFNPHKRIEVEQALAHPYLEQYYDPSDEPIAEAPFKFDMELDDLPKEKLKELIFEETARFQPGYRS

| SMILES | pIC50 [1] | pIC50 [2] | pIC50 (human PI3Kα protein) | pIC50 (CHO-K1 cells) |
| --- | --- | --- | --- | --- |
| OCCCn1cc(-c2cnc3ccc(Nc4nnc(C5CCCC5)s4)nc3c2)cn1 [Example 0316, 3-(4-(6-((5-cyclopentyl-1,3,4-thiadiazol-2-yl)amino)-1,5-naphthyridin-3-yl)-1H-pyrazol-1-yl)propan-1-ol] | > 6.00 | > 6.00 | > 6.00 | ≤ 4.60 |
| CN1CCCC1c1nnc(Nc2ccc3ncc(-c4cnn(C)c4)cc3n2)s1 (centres unmarked) [Example 0247, N-(7-(1-methyl-1H-pyrazol-4-yl)-1,5-naphthyridin-2-yl)-5-(1-methylpyrrolidin-2-yl)-1,3,4-thiadiazole-2-amine] | > 6.00 | > 6.00 | 5.00 to 6.00 | ≤ 4.60 |
| Cn1cc(-c2cnc3ccc(Nc4nnc(CC5CCCO5)s4)nc3c2)cn1 (centres unmarked) [Example 0241] | > 6.00 | > 6.00 | 5.00 to 6.00 | ≤ 4.60 |
| Cc1nn(CCCN2CCCC2)cc1-c1cnc2ccc(Nc3nnc(C(C)C)s3)nc2c1 [Example 0321, 5-isopropyl-N-(7-(3-methyl-1-(3-(pyrrolidin-1-yl)propyl)-1H-pyrazol-4-yl)-1,5-naphthyridin-2-yl)-1,3,4-thiadiazole-2-amine] | > 6.00 | > 6.00 | > 6.00 | ≤ 4.60 |
| CC(C)c1cnnc(Nc2ccc3ncc(-c4cnn(CCN5CCOCC5)c4)cc3n2)c1 [Example 0382, N-(5-isopropylpyridazin-3-yl)-7-(1-(2-morpholinoethyl)-1H-pyrazol-4-yl)-1,5-naphthyridine-2-amine] | > 6.00 | > 6.00 | > 6.00 | ≤ 4.60 |
